Key:
Assay in all cases: DNA chip expression analysis of barley leaves after soil treatment
Format in all cases: in vivo
Settings in all cases: 10 mg per plant to soil
[1] = tested on: Contig2550_x_at PATHOGENESIS-RELATED PROTEIN 4
Description: (§1) Barley seeds (of the Baroness variety) were sown in pots containing soil about 2 cm deep (1250 g of sandy loam/per pot; the soil moisture content was adjusted to 70% of the maximum water-holding capacity) and cultivated in a climatized chamber under specified light, moisture and temperature conditions (15 h white light, 70% atmospheric humidity, 23-19° C. day/night).
(§2) 14 days after the emergence of the barley plants 10 mg of imidacloprid per plant, dissolved in 100 ml water, were applied by means of a pipette to the soil around the base of the shoot. The same volume of water without any active compound was applied to the control pots. After the soil treatment the plants were no longer watered. At various times after application (0.25; 1; 6; 8; 11; 13; 15; 16 and 17 days) the leaves were harvested, quick-frozen in liquid nitrogen and stored at −80° C. until further treatment.
(§3) The labelled RNA probes for the DNA chip hybridization were produced according to the protocols (Expression Analysis, Technical Manual) of the Affymetrix company (Affymetrix Inc., 3380 Central Expressway, Santa Clara, Calif., USA). Whole RNA was first of all isolated from in each case 500 mg of the harvested leaves. 10 μg portions of whole RNA were used for the first and second strand cDNA synthesis. The cDNA was amplified with T7 polymerase and simultaneously labelled with biotin-UTP. 20 μg portions of this biotinylated cDNA were used for the hybridization of the barley genome array (Barleyl Gene Chip, Item no: 511012) from Affymetrix. This DNA microarray contains DNA sequences of 22840 genes composed of a total of 400000 EST (Expressed Sequence Tag) sequences. Then the DNA microarrays were washed in the Affymetrix Fluidics Station, stained with streptavidin/phycoerythrin (Molecular Probes, P/N S-866) and scanned with the Affymetrix Gene Chip Scanner 3000. The fluorescence data obtained were analyzed with the Microarray Suite 5 software from Affymetrix and the Expressionist Pro software from the GeneData company. After a quality check, all of the DNA chip analyses were stored in a database. Since the Affymetrix Gene Chip System is based on measuring the absolute expression values of the genes contained in the chip, the expression values of the biological replicates of treated and non-treated plants were averaged after normalization (median calculation). With the aid of the statistical ANOVA method, those genes were identified whose expression was increased in the plants treated with imidacloprid but remained relatively constant in the untreated controls. The assembly of gene groups from specific metabolic pathways, signal transduction chains or functions was carried out by a keyword search through the gene annotations supplied by Affymetrix and by linking the genes to their corresponding Gene Ontology Annotations (Gene Ontology Consortium).

[2] = tested on: Contig2209_at PATHOGENESIS RELATED PROTEIN (HV-1A)
Description: as §1, §2, §3

[3] = tested on: Contig2214_s_at PATHOGENESIS RELATED PROTEIN (HV-1A)
Description: as §1, §2, §3

[4] = tested on: Contig2210_at PATHOGENESIS-RELATED PROTEIN 1 PRECURSOR
Description: as §1, §2, §3

[5] = tested on: Contig4405_x_at PATHOGENESIS-RELATED PROTEIN PR-10A
Description: as §1, §2, §3

Question: Which “Induction factor = Expression (treated)/Expression (untreated)” value (shortened to “Induction factor = Expression”) ([1]; 0.25 d) does the source give for O=[N+]([O-])/N=C1\NCCN1Cc1ccc(Cl)nc1 [imidacloprid] here?
Answer: 0.8

Question: What about the “Median of the raw expression data, treated” value (“Median” for short) ([1]; 0.25 days) of the same compound?
Answer: 68.63

Question: And the “Induction factor = Expression” value ([1]; 1 d)?
Answer: 0.7

Question: And the “Median” value ([1]; 1 day)?
Answer: 54.66

Question: What about the “Induction factor = Expression” value ([1]; 6 d) of the same compound?
Answer: 5.8

Question: What about the “Median” value ([1]; 6 days) of the same compound?
Answer: 716.14

Question: What about the “Induction factor = Expression” value ([1]; 8 d) of the same compound?
Answer: 7.4

Question: What about the “Median” value ([1]; 8 days) of the same compound?
Answer: 1121.61

Question: What about the “Induction factor = Expression” value ([1]; 11 d) of the same compound?
Answer: 6.1

Question: What about the “Median” value ([1]; 11 days) of the same compound?
Answer: 771.21

Question: What about the “Induction factor = Expression” value ([1]; 13 d) of the same compound?
Answer: 3.1

Question: And the “Median” value ([1]; 13 days)?
Answer: 150.42

Question: What about the “Induction factor = Expression” value ([1]; 15 d) of the same compound?
Answer: 1.4

Question: What about the “Median” value ([1]; 15 days) of the same compound?
Answer: 162.60

Question: What about the “Induction factor = Expression” value ([1]; 16 d) of the same compound?
Answer: 2.7

Question: What about the “Median” value ([1]; 16 days) of the same compound?
Answer: 389.62

Question: What about the “Induction factor = Expression” value ([1]; 17 d) of the same compound?
Answer: 0.9

Question: What about the “Median” value ([1]; 17 days) of the same compound?
Answer: 174.42

Question: What about the “Induction factor = Expression” value ([2]; 0.25 d) of the same compound?
Answer: 0.8

Question: And the “Median” value ([2]; 0.25 days)?
Answer: 187.60

Question: What about the “Induction factor = Expression” value ([2]; 1 d) of the same compound?
Answer: 0.6

Question: And the “Median” value ([2]; 1 day)?
Answer: 153.35

Question: What about the “Induction factor = Expression” value ([2]; 6 d) of the same compound?
Answer: 9.8

Question: And the “Median” value ([2]; 6 days)?
Answer: 4773.49

Question: And the “Induction factor = Expression” value ([2]; 8 d)?
Answer: 11.5

Question: And the “Median” value ([2]; 8 days)?
Answer: 8173.99

Question: And the “Induction factor = Expression” value ([2]; 11 d)?
Answer: 12.1

Question: And the “Median” value ([2]; 11 days)?
Answer: 8587.82

Question: What about the “Induction factor = Expression” value ([2]; 13 d) of the same compound?
Answer: 6.0

Question: And the “Median” value ([2]; 13 days)?
Answer: 1723.94

Question: And the “Induction factor = Expression” value ([2]; 15 d)?
Answer: 2.7

Question: What about the “Median” value ([2]; 15 days) of the same compound?
Answer: 1689.29

Question: What about the “Induction factor = Expression” value ([2]; 16 d) of the same compound?
Answer: 2.5

Question: And the “Median” value ([2]; 16 days)?
Answer: 2069.04

Question: And the “Induction factor = Expression” value ([2]; 17 d)?
Answer: 0.6

Question: What about the “Median” value ([2]; 17 days) of the same compound?
Answer: 888.58

Question: What about the “Induction factor = Expression” value ([3]; 0.25 d) of the same compound?
Answer: 0.9

Question: What about the “Median” value ([3]; 0.25 days) of the same compound?
Answer: 86.29

Question: What about the “Induction factor = Expression” value ([3]; 1 d) of the same compound?
Answer: 0.5

Question: And the “Median” value ([3]; 1 day)?
Answer: 44.68

Question: What about the “Induction factor = Expression” value ([3]; 6 d) of the same compound?
Answer: 9.8

Question: And the “Median” value ([3]; 6 days)?
Answer: 3322.93

Question: What about the “Induction factor = Expression” value ([3]; 8 d) of the same compound?
Answer: 11.1

Question: What about the “Median” value ([3]; 8 days) of the same compound?
Answer: 4807.28

Question: And the “Induction factor = Expression” value ([3]; 11 d)?
Answer: 9.3

Question: What about the “Median” value ([3]; 11 days) of the same compound?
Answer: 4463.75

Question: And the “Induction factor = Expression” value ([3]; 13 d)?
Answer: 5.1

Question: And the “Median” value ([3]; 13 days)?
Answer: 636.20

Question: And the “Induction factor = Expression” value ([3]; 15 d)?
Answer: 3.0

Question: What about the “Median” value ([3]; 15 days) of the same compound?
Answer: 808.24

Question: What about the “Induction factor = Expression” value ([3]; 16 d) of the same compound?
Answer: 2.4

Question: What about the “Median” value ([3]; 16 days) of the same compound?
Answer: 1241.52

Question: What about the “Induction factor = Expression” value ([3]; 17 d) of the same compound?
Answer: 0.6

Question: What about the “Median” value ([3]; 17 days) of the same compound?
Answer: 472.04

Question: And the “Induction factor = Expression” value ([4]; 0.25 d)?
Answer: 0.6

Question: What about the “Median” value ([4]; 0.25 days) of the same compound?
Answer: 143.08

Question: What about the “Induction factor = Expression” value ([4]; 1 d) of the same compound?
Answer: 0.4

Question: What about the “Median” value ([4]; 1 day) of the same compound?
Answer: 78.12

Question: What about the “Induction factor = Expression” value ([4]; 6 d) of the same compound?
Answer: 7.9

Question: What about the “Median” value ([4]; 6 days) of the same compound?
Answer: 6881.20

Question: And the “Induction factor = Expression” value ([4]; 8 d)?
Answer: 8.8

Question: What about the “Median” value ([4]; 8 days) of the same compound?
Answer: 8961.17

Question: And the “Induction factor = Expression” value ([4]; 11 d)?
Answer: 5.4

Question: And the “Median” value ([4]; 11 days)?
Answer: 7946.25

Question: What about the “Induction factor = Expression” value ([4]; 13 d) of the same compound?
Answer: 3.6

Question: What about the “Median” value ([4]; 13 days) of the same compound?
Answer: 1553.93

Question: And the “Induction factor = Expression” value ([4]; 15 d)?
Answer: 2.8

Question: And the “Median” value ([4]; 15 days)?
Answer: 1970.04

Question: And the “Induction factor = Expression” value ([4]; 16 d)?
Answer: 2.4

Question: What about the “Median” value ([4]; 16 days) of the same compound?
Answer: 2013.49

Question: And the “Induction factor = Expression” value ([4]; 17 d)?
Answer: 0.7

Question: What about the “Median” value ([4]; 17 days) of the same compound?
Answer: 1121.55

Question: And the “Induction factor = Expression” value ([5]; 0.25 d)?
Answer: 1.1

Question: And the “Median” value ([5]; 0.25 days)?
Answer: 60.34

Question: And the “Induction factor = Expression” value ([5]; 1 d)?
Answer: 0.9

Question: What about the “Median” value ([5]; 1 day) of the same compound?
Answer: 55.96

Question: And the “Induction factor = Expression” value ([5]; 6 d)?
Answer: 2.1

Question: What about the “Median” value ([5]; 6 days) of the same compound?
Answer: 146.82

Question: What about the “Induction factor = Expression” value ([5]; 8 d) of the same compound?
Answer: 2.8

Question: And the “Median” value ([5]; 8 days)?
Answer: 181.30

Question: What about the “Induction factor = Expression” value ([5]; 11 d) of the same compound?
Answer: 2.2

Question: What about the “Median” value ([5]; 11 days) of the same compound?
Answer: 125.79

Question: What about the “Induction factor = Expression” value ([5]; 13 d) of the same compound?
Answer: 1.3

Question: What about the “Median” value ([5]; 13 days) of the same compound?
Answer: 55.42

Question: And the “Induction factor = Expression” value ([5]; 15 d)?
Answer: 1.1

Question: What about the “Median” value ([5]; 15 days) of the same compound?
Answer: 57.66

Question: What about the “Induction factor = Expression” value ([5]; 16 d) of the same compound?
Answer: 1.4

Question: And the “Median” value ([5]; 16 days)?
Answer: 88.69

Question: What about the “Induction factor = Expression” value ([5]; 17 d) of the same compound?
Answer: 1.5

Question: What about the “Median” value ([5]; 17 days) of the same compound?
Answer: 87.06

Reference: patent US20090018019A1, “INCREASING PATHOGEN DEFENCE IN PLANTS” (priority 2005, published 2009)
